Data as given in ChEMBL document CHEMBL1154244, “Isoflavonoids from Erythrina poeppigiana: evaluation of their binding affinity for the estrogen receptor” (J Nat Prod, 2009).

Organism: Homo sapiens
Experiment: Selectivity ratio of IC50 for human recombinant ERalpha to IC50 for human recombinant ERbeta

Structure (SMILES)	Ratio IC50
CCCc1c(-c2ccc(O)cc2)nn(-c2ccc(O)cc2)c1-c1ccc(O)cc1	36
CC(C)=CCc1c(O)cc2occ(-c3ccc(O)cc3)c(=O)c2c1O	0.6
COc1cc(O)c2c(=O)c(-c3ccc(O)c(CC(O)=C(C)C)c3)coc2c1	2.3
COc1cc(O)c2c(=O)c(-c3cc4c(cc3O)OC(C)(C)C(O)C4)coc2c1 (stereo not drawn)	16
CC1(C)C=Cc2c(cc3occ(-c4ccc(O)cc4)c(=O)c3c2O)O1	0.7
CC(C)=CCc1cc(-c2coc3cc(O)cc(O)c3c2=O)ccc1O	0.6
COc1cc(O)c2c(=O)c(-c3cc(CC=C(C)C)c(O)cc3O)coc2c1	0.7
COc1ccc2c(c1CC=C(C)C)O[C@H]1c3ccc(O)cc3OC[C@@]21O	2.2
